The values below come from paper PMC9712658, “Structural analysis of the 2-oxoglutarate binding site of the circadian rhythm linked oxygenase JMJD5” (Scientific Reports, 2022).

T1 sequence (Q8N371 whole entry, the tested form may be a part): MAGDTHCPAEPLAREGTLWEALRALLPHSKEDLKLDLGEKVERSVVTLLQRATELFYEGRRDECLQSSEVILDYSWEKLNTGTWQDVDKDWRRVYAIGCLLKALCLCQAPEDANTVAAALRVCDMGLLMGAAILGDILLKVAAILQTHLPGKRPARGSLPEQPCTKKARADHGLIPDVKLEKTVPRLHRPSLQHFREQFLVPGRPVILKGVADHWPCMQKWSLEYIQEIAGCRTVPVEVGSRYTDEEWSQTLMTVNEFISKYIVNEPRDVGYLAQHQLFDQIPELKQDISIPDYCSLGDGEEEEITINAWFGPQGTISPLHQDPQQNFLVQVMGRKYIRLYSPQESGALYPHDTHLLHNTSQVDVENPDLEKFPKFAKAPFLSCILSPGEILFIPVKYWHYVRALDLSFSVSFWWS

The first test addresses T1, full-length JMJD5 (aa 1–416, JMJD5^FL) (Homo sapiens, UniProt Q8N371).
T1 construct: 10 µM full-length JMJD5 (aa 1–416); His6 (N); made in house; host or cells: Escherichia coli Rosetta2(DE3)-pLysS
The test is described as follows: JMJD5 inhibition assay by MALDI-TOF MS (hydroxylation of RpS6_129-144 peptide). Format: biochemical. The settings on record: 10 µM JMJD5^FL, 100 µM Fe(II), 400 µM ascorbate, 50 µM 2OG, 100 µM RpS6_129-144, inhibitor 0–10 mM; mean (n = 3) ± SD. The text has this: To explore inhibition involving orthosteric 2OG ligand binding in the JMJD5 2OG pocket, we initially screened a focused set of compounds comprising relatively close 2OG mimetics, tricarboxylic acid (TCA) cycle intermediates, hypoxia inducible factor (HIF) prolyl hydroxylase (PHD) inhibitors, and JmjC histone demethylase (KDM) inhibitors (Supplementary Fig. S1).
[…] Hydroxylation of RpS6 peptide was monitored by MALDI-TOF MS and intensity of hydroxylated peak was quantified to determine the extent of inhibition caused by inhibitor.
Compound `O=C(O)CC(O)C(=O)O` (stereo not shown) [Malate] displayed an IC50 of 1604 ± 1.4 µM.

Turning to `O=C(O)CC(=O)C(=O)O` [Oxaloacetate], the IC50 was determined as 85 ± 1.4 µM.

`O=C(O)CC[C@@H](O)C(=O)O` [D-2HG, D-2-hydroxyglutarate] had an IC50 of 1268 ± 1.5 µM.

The compound `Cc1nc(C(=O)NCC(=O)O)c(O)c2ccc(Oc3ccccc3)cc12` [FG4592] had an IC50 of 239 ± 1.9 µM. This IC50 lies about 5.3-fold lower than the previous one.

Turning to `O=C(O)c1ccnc(-c2cc(C(=O)O)ccn2)c1` [2.4-BPDCA, bipyridinyl-2,4-dicarboxylate], the IC50 stood at 66 ± 1.5 µM.

Compound `CN(C)CCCNC(=O)c1ccc(-c2cc(O)c3ncccc3c2)cc1` [ML-324] yielded an IC50 of 15 ± 1.4 µM.

As for `CC(=O)C(=O)O` [Pyruvate], it took 500 ± 1.6 µM to reach half-maximal inhibition (IC50).

Consider `O=C(O)CNC(=O)c1ncc(-c2cccc(F)c2)cc1O` [AKB-6899], for which the IC50 turned out to be 288 ± 1.5 µM.

`O=C(O)c1ccc(O)c2ncccc12` [IOX1, 5-carboxy-8-hydroxyquinoline]: the IC50 worked out at 96 ± 1.7 µM.

Take `O=C(O)CCC(=O)O` [Succinate]: the half-maximal inhibitory concentration (IC50) worked out at 840 ± 1.4 µM.

For the compound `O=C(O)CC[C@H](O)C(=O)O` [L-2HG, L-2-hydroxyglutarate], half-maximal inhibition (IC50) required 340 ± 1.3 µM. This IC50 is about 2.5-fold lower than that of the compound before.

Regarding `O=C(O)CNC(=O)C(=O)O` [NOG, N-oxalylglycine], the IC50 is 6 ± 1.4 µM. This IC50 is about 57-fold lower than that of the compound before.

In turn, `O=C(O)CC(O)(CC(=O)O)C(=O)O` [Citrate] gave a half-maximal inhibitory concentration (IC50) of 820 ± 1.8 µM. Against the preceding compound, the IC50 is about 140-fold higher.

Regarding `O=C(O)CCNc1cc(N2CCc3ccccc3CC2)nc(-c2ccccn2)n1` [GSK-J1], half-maximal inhibition (IC50) required 67 ± 1.5 µM.

`CCN(CCN(C)C)C(=O)CNCc1cc(C(=O)O)ccn1` [KDM5-C49]: the IC50 came to 621 ± 1.4 µM.

The test is the same for the next values; noted with them: screen at 0.1, 1 and 10 mM and/or IC50 determination.
As for `CN(C)NC(=O)CCC(=O)O` [daminozide], the “JMJD5 inhibition (in words)” value is “Neither daminozide (a plant growth regulator that inhibits the JmjC KDM 2/7 oxygenases[56]), nor its structural derivative 7 appear to inhibit JMJD5”.
